Here are results for two molecules from patent US5830863A, “Neurokinin A antagonists” (priority 1996, dated 1998).

Residues, ends and D or L forms follow the SMILES beside them.

One assay addresses T1, NKA receptor (Mesocricetus auratus, UniProt P51144).
T1 construct: displace I125 labeled NKA from hamster urinary bladder; from tissue; host or cells: hamster urinary bladder (membranes in A1, chopped tissue in A4)
T1 sequence (P51144 1-384): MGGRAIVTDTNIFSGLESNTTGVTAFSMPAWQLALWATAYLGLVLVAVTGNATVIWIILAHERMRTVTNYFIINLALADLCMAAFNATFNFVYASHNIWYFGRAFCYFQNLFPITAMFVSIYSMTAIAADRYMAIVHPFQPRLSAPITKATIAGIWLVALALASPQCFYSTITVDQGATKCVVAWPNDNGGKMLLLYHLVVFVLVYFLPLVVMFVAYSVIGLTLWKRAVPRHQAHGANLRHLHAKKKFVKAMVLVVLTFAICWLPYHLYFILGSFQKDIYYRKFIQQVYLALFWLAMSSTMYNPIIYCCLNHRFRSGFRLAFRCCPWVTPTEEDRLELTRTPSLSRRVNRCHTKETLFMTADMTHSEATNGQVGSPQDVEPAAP
As to the kind of experiment: phosphatidylinositol (PI) turnover in hamster urinary bladder. It counts as cell-based. As to conditions: test compound alone; ID#3 up to 100 μM. Here is the method:
The abscissa (x-axis) logarithmically indicates the concentration in nanomolar (nM) of agonist or antagonist of the NKA receptor. The ordinate (y-axis) indicates the observed PI turnover as a percentage of control. […] The ordinate (y-axis) indicates the observed PI turnover as a percentage of control. […] Urinary bladders from several hamsters were pooled and chopped at 350 μm with a tissue chopper. The chopped tissue was then incubated in 37° C. Krebs-Hepes buffer with fresh buffer changes every 15 minutes for 30 minutes. The tissue was then incubated in this buffer containing 100-200 μCi of ^3 H-inositol at 37° C. […] Test compound was also evaluated alone at the indicated concentrations to test for agonist activity. […] 50 μl of the bottom phase (chloroform) was withdrawn from each tube and placed in a counting vial, dried, and counted in scintillation fluid. The material on the columns was washed in order with: 1) 10 ml of water 2) 5 ml of 5 mM disodium tetraborate/60 mM sodium formate 3) 10 ml of 1M ammonium formate in 0.1M formic acid The final (third) wash was collected and one ml was mixed with 6 ml of ACS scintillant and counted. The ratio of these counts (total inositol phosphates) to the corresponding organic phase counts was then calculated for each sample. […]

Assay [1] concerns the target T2, neurokinin A (NKA) receptor (NK-2) (Mesocricetus auratus, UniProt P51144).
T2 construct: displace I125 labeled NKA from hamster urinary bladder; from tissue; host or cells: hamster urinary bladder (membranes in A1, chopped tissue in A4)
T2 sequence (P51144 1-384): T1 sequence (P51144 1-384)
As to the kind of experiment: displacement of I125 labeled NKA from hamster urinary bladder membranes. The assay is classed as binding. An excerpt:
The abscissa (x-axis) logarithmically indicates the concentration in nanomoles of agonist of antagonist of the neurokinin A (NKA) receptor. The ordinate (Y-axis) indicates the observed specific binding for each tested agonist or antagonist measured as a percentage of maximum specific binding.
Agonists tested were NKA and fragments of NKA consisting of the third to tenth (NKA(3-10)) amino acids and the fourth to tenth (NKA(4-10)) amino acids. Values are MEAN±S.E.M. of 6-12 experiments. IC50 values estimated graphically from 50% inhibition point.
Urinary bladders from several hamsters were pooled, minced, and homogenized in 50 mM TRIS-HCl (pH 7.4) containing 120 mM NaCl and 5 mM KCl at 4° C. and centrifuged at 48,000×g for 15 minutes. The pellet was resuspended for 30 minutes in 50 mM TRIS-HCl (pH 7.4) containing 10 mM EDTA and 300 mM KCl at 4° C. The suspension was centrifuged as above and the pellet was washed two times in plain 50 mM TRIS-HCl (pH 7.4) and centrifuged similarly. The tissue was then resuspended in incubation buffer and an aliquot (approximately 3-5 mg tissue) was added to each assay tube to commence the assay. The assay tubes contained incubation buffer consisting of 50 mM TRIS-HCl (pH 7.4), 0.02% BSA, 40 μg/ml bacitracin, 4 μg/ml chymostatin, 4 μg/ml leupeptin, 2 mM MnCl2, 0.1 nM ^125 iodohistidyl^1 -neurokinin A (Amersham Corp.), and concentrations of the title compounds or standards ranging from 0.03 nM to 100 μM. The assay was allowed to proceed to equilibrium for 120 min at room temperature. After this time, the contents of each tube was rapidly filtered over Whatman GF/B filters presoaked in 0.5% BSA and the filters were rapidly washed two times with ice-cold plain 50 mM TRIS-HCl (pH 7.4). Filter-bound radioactivity was quantitated in a gamma counter. Specific binding (maximum) was defined as the difference between binding in the presence and absence of 1 μM unlabeled neurokinin A. Competition of iodinated neurokinin A binding by test compounds or standards was expressed as a percentage of this maximum competition.
Values given indicate the concentration in nanomoles of antagonist to reach the IC50 of the neurokinin A (NKA) receptor. SKLKB82#3 represents a cloned NK-2 receptor cell line; the sample is prepared from the scraped cell pellet for assay as earlier described for the hamster urinary bladder preparations. NK-1 represents a substance P receptor preparation from rat salivary gland; receptors are prepared as earlier described for the hamster urinary bladder preparations. Blank spaces indicate compound has not been tested in that particular assay.

Usually IC50 stands for the concentration needed to halve the response being measured. Low values mean greater potency, high ones weaker potency. Consider `CC(C)C[C@@H](CN[C@@H](CC(C)C)C(N)=O)NC(=O)CNC(=O)[C@@H](NC(=O)[C@H](Cc1ccccc1)NC(=O)[C@H](CO)NC(=O)[C@@H](N)CC(=O)O)C(C)C` [MDL 28,564, H-Asp-Ser-Phe-Val-Gly-Leu.PSI.(CH2 NH)Leu-NH2] (HELM PEPTIDE1{D.S.F.V.G.[CC(C)C[C@@H](CN[C@@H](CC(C)C)C(N)=O)N[*:1]]}$$$$V2.0), for which the “partial agonist activity (PI turnover)” value at NKA receptor turned out to be 12%. In assay [1], this molecule yielded a 50% inhibitory concentration (IC50) of 157 ± 17 nM.

Turning to `CC(C)C[C@@H](CN(C)[C@@H](CC(C)C)C(N)=O)NC(=O)CNC(=O)[C@@H](NC(=O)[C@H](Cc1ccccc1)NC(=O)[C@H](CO)NC(=O)[C@@H](N)CC(=O)O)C(C)C` [MDL 29,916, H-Asp-Ser-Phe-Val-Gly-Leu.PSI.(CH2 NCH3)Leu-NH2] (HELM PEPTIDE1{D.S.F.V.G.[CC(C)C[C@@H](CN(C)[C@@H](CC(C)C)C(N)=O)N[*:1]]}$$$$V2.0), the “partial agonist activity (PI turnover)” value at NKA receptor stood at 5%. This molecule also registered a 50% inhibitory concentration (IC50) in assay [1] of 210 ± 15 nM.
